Biological target: T1, human RXFP1 (Homo sapiens, UniProt Q9HBX9)
T1 construct: expressed in transfected cells
T1 sequence (Q9HBX9 1-757): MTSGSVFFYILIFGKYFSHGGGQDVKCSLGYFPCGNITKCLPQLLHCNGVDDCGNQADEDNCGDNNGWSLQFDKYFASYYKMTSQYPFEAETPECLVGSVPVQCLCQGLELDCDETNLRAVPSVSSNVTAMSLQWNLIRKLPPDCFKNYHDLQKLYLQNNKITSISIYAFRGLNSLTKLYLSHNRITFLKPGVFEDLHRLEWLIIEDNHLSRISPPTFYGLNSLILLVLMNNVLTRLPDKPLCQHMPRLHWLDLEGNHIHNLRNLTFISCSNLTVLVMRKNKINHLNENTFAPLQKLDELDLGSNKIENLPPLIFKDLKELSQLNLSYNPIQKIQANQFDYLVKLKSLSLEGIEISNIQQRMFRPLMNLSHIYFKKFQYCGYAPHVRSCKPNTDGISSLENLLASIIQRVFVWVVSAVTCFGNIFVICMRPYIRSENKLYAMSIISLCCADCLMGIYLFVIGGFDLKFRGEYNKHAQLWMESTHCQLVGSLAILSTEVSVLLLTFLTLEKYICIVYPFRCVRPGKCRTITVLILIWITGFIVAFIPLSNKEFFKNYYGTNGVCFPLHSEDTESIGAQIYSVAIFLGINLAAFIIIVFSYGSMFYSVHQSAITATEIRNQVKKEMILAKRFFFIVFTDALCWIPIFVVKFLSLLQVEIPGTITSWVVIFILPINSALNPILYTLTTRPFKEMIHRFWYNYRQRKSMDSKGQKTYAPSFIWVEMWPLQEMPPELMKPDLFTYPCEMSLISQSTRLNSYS
Assay: human RXFP1 (hRXFP1) HEK293 cAMP assay (HTRF)
Format: cell-based
Settings: HEK293 cells stably expressing human RXFP1, 30 min at room temperature
Method: RXFP1 Cyclic Adenosine Monophosphate (cAMP) Assays. […] Cells were dissociated and suspended in assay buffer. The assay buffer was HBSS buffer (with calcium and magnesium) containing 20 mM HEPES, 0.05% BSA, and 0.5 mM IBMX. Cells (3000 cells per well, except 1500 cell per well for HEK293 cells stably expressing human RXFP1) were added to 384-well Proxiplates (Perkin-Elmer). Cells were immediately treated with test compounds in DMSO (2% final) at final concentrations in the range of 0.010 nM to 50 µM. Cells were incubated for 30 min at room temperature. The level of intracellular cAMP was determined using the HTRF HiRange cAMP assay reagent kit (Cisbio) according to manufacturer's instructions. Solutions of cryptate conjugated anti-cAMP and d2 fluorophore-labelled cAMP were made in a supplied lysis buffer separately. Upon completion of the reaction, the cells were lysed with equal volume of the d2-cAMP solution and anti-cAMP solution. […] The potency and activity of a compound to […] cAMP production was then determined by fitting to a 4-parametric logistic equation from a plot of cAMP level versus compound concentrations.

Compound | EC50
O=C(N[C@@H]1C2CCC(/C2=C/C2CC2)[C@@H]1C(=O)Nc1ccc(F)c(C(F)(F)F)c1)c1cncc(C2=NOC3COCC23)c1 (single isomer, unassigned) [Example 62] | 2.4 µM
O=C(N[C@@H]1C2CCC(/C2=C/C2CC2)[C@@H]1C(=O)Nc1ccc(F)c(C(F)(F)F)c1)c1cncc(C2=NOC3COCC23)c1 (single isomer, unassigned) [Example 63] | 0.12 µM
COc1cnc(C2=NOC3COCC23)cc1C(=O)N[C@H]1[C@@H](C(=O)Nc2ccc(F)c(C(F)(F)F)c2)[C@H]2CC[C@@H]1/C2=C\C1CC1 (single isomer, unassigned) [Example 71] | 0.028 µM
CC1(C)Cc2cc(C3=NOC4CC(O)(C(F)(F)F)CC34)cc(C(=O)N[C@@H]3C4CCC(/C4=C/C4CCCC4)[C@@H]3C(=O)Nc3ccc(F)c(C(F)(F)F)c3)c2O1 (single isomer, unassigned) [Example 142] | 0.0022 µM
COc1ncc(Br)cc1C(=O)N[C@@H]1C2CCC(C2=C(C)C)[C@@H]1C(=O)Nc1ccc(F)c(C(F)(F)F)c1 (stereo partly drawn) [Example 1, 5-bromo-N-[(2R,3S)-3-{[4-fluoro-3-(trifluoromethyl)phenyl]carbamoyl}-7-(propan-2-ylidene)bicyclo[2.2.1]heptan-2-yl]-2-methoxypyridine-3-carboxamide] | 0.71 µM
COc1ccncc1C(=O)N[C@@H]1C2CCC(C2=C(C)C)[C@@H]1C(=O)Nc1ccc(F)c(C(F)(F)F)c1 (stereo partly drawn) [Example 2, N-[(2R,3S)-3-{[4-fluoro-3-(trifluoromethyl)phenyl]carbamoyl}-7-(propan-2-ylidene)bicyclo [2.2.1]heptan-2-yl]-4-methoxypyridine-3-carboxamide] | 0.66 µM
CC(C)=C1C2CCC1[C@H](C(=O)Nc1ccc(F)c(C(F)(F)F)c1)[C@@H]2NC(=O)c1cc(C#N)ccn1 (stereo partly drawn) [Example 3, 4-cyano-N-[(2R,3S)-3-{[4-fluoro-3-(trifluoromethyl)phenyl]carbamoyl}-7-(propan-2-ylidene)bicyclo [2.2.1]heptan-2-yl]pyridine-2-carboxamide] | 0.44 µM
COc1cc(C(=O)N[C@@H]2C3CCC(C3=C(C)C)[C@@H]2C(=O)Nc2ccc(F)c(C(F)(F)F)c2)c(OC)nn1 (stereo partly drawn) [Example 4, N-[(2R,3S)-3-{[4-fluoro-3-(trifluoromethyl)phenyl]carbamoyl}-7-(propan-2-ylidene)bicyclo [2.2.1]heptan-2-yl]-3,6-dimethoxy-pyridazine-4-carboxamide] | 5 µM
COc1ncc(Br)nc1C(=O)N[C@@H]1C2CCC(C2=C(C)C)[C@@H]1C(=O)Nc1ccc(F)c(C(F)(F)F)c1 (stereo partly drawn) [Example 5, 6-bromo-N-[(2R,3S)-3-{[4-fluoro-3-(trifluoromethyl)phenyl]carbamoyl}-7-(propan-2-ylidenc)bicyclo [2.2.1]heptan-2-yl]-3-methoxypyrazine-2-carboxamide] | 1.1 µM
COc1cnccc1C(=O)N[C@@H]1C2CCC(C2=C(C)C)[C@@H]1C(=O)Nc1ccc(F)c(C(F)(F)F)c1 (stereo partly drawn) [Example 6, N-[(2R,3S)-3-{[4-fluoro-3-(trifluoromethyl)phenyl]carbamoyl}-7-(propan-2-ylidene)bicyclo [2.2.1]heptan-2-yl]-3-methoxypyridine-4-carboxamide] | 1.1 µM
COc1nccnc1C(=O)N[C@@H]1C2CCC(C2=C(C)C)[C@@H]1C(=O)Nc1ccc(F)c(C(F)(F)F)c1 (stereo partly drawn) [Example 7, N-[(2R,3S)-3-{[4-fluoro-3-(trifluoromethyl)phenyl]carbamoyl}-7-(propan-2-ylidene)bicyclo [2.2.1]heptan-2-yl]-3-methoxypyrazine-2-carboxamide] | 1.2 µM
COc1ncccc1C(=O)N[C@@H]1C2CCC(C2=C(C)C)[C@@H]1C(=O)Nc1ccc(F)c(C(F)(F)F)c1 (stereo partly drawn) [Example 8, N-[(2R,3S)-3-{[4-fluoro-3-(trifluoromethyl)phenyl]carbamoyl}-7-(propan-2-ylidene)bicyclo [2.2.1]heptan-2-yl]-2-methoxypyridine-3-carboxamide] | 1.3 µM
COc1cscc1C(=O)N[C@@H]1C2CCC(C2=C(C)C)[C@@H]1C(=O)Nc1ccc(F)c(C(F)(F)F)c1 (stereo partly drawn) [Example 9, N-[(2R,3S)-3-{[4-fluoro-3-(trifluoromethyl)phenyl]carbamoyl}-7-(propan-2-ylidene)bicyclo [2.2.1]heptan-2-yl]-4-methoxy-thiophene-3-carboxamide] | 1.4 µM
COc1ncncc1C(=O)N[C@@H]1C2CCC(C2=C(C)C)[C@@H]1C(=O)Nc1ccc(F)c(C(F)(F)F)c1 (stereo partly drawn) [Example 10, N-[(2R,3S)-3-{[4-fluoro-3-(trifluoromethyl)phenyl]carbamoyl}-7-(propan-2-ylidene)bicyclo [2.2.1]heptan-2-yl]-4-methoxypyrimidine-5-carboxamide] | 5 µM
COc1ncc(Cl)cc1C(=O)N[C@@H]1C2CCC(/C2=C/C(F)(F)F)[C@@H]1C(=O)Nc1ccc(F)c(C(F)(F)F)c1 (stereo partly drawn) [Example 11, 5-chloro-N-[(2R,3S,7Z)-3-{[4-fluoro-3-(trifluoromethyl)phenyl]carbamoyl}-7-(2,2,2-trifluoroethylidcne)bicyclo[2. 2.1]heptan-2-yl]-2-methoxypyridine-3-carboxamide] | 0.94 µM
COc1nn(C)cc1C(=O)N[C@@H]1C2CCC(/C2=C/C(F)(F)F)[C@@H]1C(=O)Nc1ccc(F)c(C(F)(F)F)c1 (stereo partly drawn) [Example 12, N-[(2R,3S,7Z)-3-{[4-fluoro-3-(trifluoromethyl)phenyl]carbamoyl}-7-(2,2,2-trifluoroethylidene)bicyclo[2.2.1]heptan-2-yl]-3-methoxy-1-methyl-1H-pyrazole-4-carboxamide] | 4.6 µM
O=C(N[C@@H]1C2CCC(/C2=C/C(F)(F)F)[C@@H]1C(=O)Nc1ccc(F)c(C(F)(F)F)c1)c1cnn2c(C(F)F)cc(Cl)cc12 (some centres unmarked) [Example 13] | 1.7 µM

The remaining lines, values ahead:

EC50 | Compound
0.21 µM | COc1ncc(C2=NOC3COCC23)cc1C(=O)N[C@H]1[C@@H](C(=O)Nc2ccc(F)c(C(F)(F)F)c2)[C@H]2CC[C@@H]1/C2=C\C1CC1 (single isomer, unassigned) [Example 60]
0.0037 µM | COc1ncc(C2=NOC3COCC23)cc1C(=O)N[C@H]1[C@@H](C(=O)Nc2ccc(F)c(C(F)(F)F)c2)[C@H]2CC[C@@H]1/C2=C\C1CC1 (single isomer, unassigned) [Example 61]
0.021 µM | COc1ncc(C2=NOC3CC(C(N)=O)CC23)cc1C(=O)N[C@H]1[C@@H](C(=O)Nc2ccc(F)c(C(F)(F)F)c2)[C@H]2CC[C@@H]1/C2=C\C1CC1 (single isomer, unassigned) [Example 65]
0.3 µM | COc1ncc(C2=NOC3CC(CO)CC23)cc1C(=O)N[C@@H]1C2CCC(/C2=C/C2CC2)[C@@H]1C(=O)Nc1ccc(F)c(C(F)(F)F)c1 (single isomer, unassigned) [Example 67]
0.13 µM | COc1ncc(C2=NOC3CC(CO)CC23)cc1C(=O)N[C@@H]1C2CCC(/C2=C/C2CC2)[C@@H]1C(=O)Nc1ccc(F)c(C(F)(F)F)c1 (single isomer, unassigned) [Example 68]
0.0015 µM | COc1ncc(C2=NOC3CC(CO)CC23)cc1C(=O)N[C@@H]1C2CCC(/C2=C/C2CC2)[C@@H]1C(=O)Nc1ccc(F)c(C(F)(F)F)c1 (single isomer, unassigned) [Example 69]
0.0023 µM | COc1ncc(C2=NOC3CC(CO)CC23)cc1C(=O)N[C@@H]1C2CCC(/C2=C/C2CC2)[C@@H]1C(=O)Nc1ccc(F)c(C(F)(F)F)c1 (single isomer, unassigned) [Example 70]
0.16 µM | COc1cnc(C2=NOC3COCC23)cc1C(=O)N[C@H]1[C@@H](C(=O)Nc2ccc(F)c(C(F)(F)F)c2)[C@H]2CC[C@@H]1/C2=C\C1CC1 (single isomer, unassigned) [Example 72]
0.0035 µM | COc1ncc(C(=O)NCC2(S(C)(=O)=O)CC2)cc1C(=O)N[C@H]1C(C(=O)Nc2ccc(F)c(C(F)(F)F)c2)[C@H]2CC[C@@H]1/C2=C\C1CC1 (stereo in doubt) [Example 74, N3-((1R,2R,3R,4R,Z)-7-(cyclopropylmethylene)-3-((4-fluoro-3-(trifluoromethyl)phenyl)carbamoyl)bicyclo[2.2.1]heptan-2-yl)-2-methoxy-N5-((1-(methylsulfonyl)cyclopropyl)methyl)pyridine-3,5-dicarboxamide]
